Test results taken from patent publication US20250313533A1, “QUINOLINE CARBOXYLIC ACID ESTER COMPOUND AND PREPARATION METHOD AND USE THEREOF” (priority 2019, published 2025).
Several values for one entry are separate records, joined by “and”; a condition that tells them apart may be missing. Equal values may be shown once. Read-outs that look alike come from different tables or passages of the source.

Tests used:
[1] = test system: soft rot in Chinese cabbages; assay: Field test for controlling soft rot in Chinese cabbages; format: in vivo, Chinese cabbage; settings: 7 days after the last application
Procedure: (§1) In October 2019, tests were carried out in fields of Chinese cabbage, wild cabbage and lettuce in Tai'an, Shandong. The doses of the compounds 152 and 282 of the present disclosure (both prepared as dispersible granules with a mass fraction of 10%) used were 16.87 ga.i./hm^2 and 33.75 ga.i./hm^2, and the control agents used were 3% (by weight) wettable powder of zhongshengmycin and 33.5% (by weight) aqueous suspension of oxine-copper (both were commercially available). The dose of zhongshengmycin was 67.5 ga.i./hm^2, and the dose of oxine-copper was 337.5 ga.i./hm^2. Test and control agents were arranged in randomized blocks. Plot area was 15 m^2. Treatment was repeated 3 times. The route of application was spraying on stem and leaves. The application was performed 2 times in total at an interval of 7 days, and the efficacy investigation was performed 7 days after the last application. During the investigation, sampling was carried out at 5 points in each plot. Disease conditions of soft rot in Chinese cabbages, soft rot in lettuces and soft rot in wild cabbages were recorded according to the relevant technical standard of Pesticide Guidelines for the Field Efficacy Trials GB/T17980.114-2004, and the incidence rate of plants was calculated to further evaluate the control effect.

[2] = test system: soft rot in wild cabbages; assay: Field test for controlling soft rot in wild cabbages; format: in vivo, wild cabbage; settings: 7 days after the last application
Procedure: as §1

[3] = test system: fruit blotch in watermelons
[4] = test system: pathogenic bacteria causing black shank in potatoes; assay: In vitro bactericidal activity, black shank in potatoes; format: cell-based
[5] = test system: pathogenic bacteria causing bacterial angular leaf spot in cucumbers; assay: In vitro bactericidal activity, bacterial angular leaf spot in cucumbers; format: cell-based, pseudomonas
[6] = test system: soft rot in Chinese cabbages
[7] = test system: pathogenic bacteria causing black rot in Chinese cabbages; assay: In vitro bactericidal activity, black rot in Chinese cabbages; format: cell-based, xanthomonas
[8] = test system: pathogenic bacteria causing stem rot in sweet potatoes; assay: In vitro bactericidal activity, stem rot in sweet potatoes; format: cell-based, dikia
[9] = test system: pathogenic bacteria causing bacterial wilt in cassava; assay: organism not typed; format: cell-based; settings: in vitro
[10] = test system: pathogenic bacteria causing bacterial wilt in tobacco; assay: whole plant or invertebrate; format: cell-based, ralstonia; settings: in vitro
black shank in potatoes = assay: Living crops in vivo protective activity, potatoes (root irrigation)
Procedure: Root irrigation was carried out on the potatoes for tests according to the designed concentration of the agents. The dosage for each plant was 200 mL and was kept consistent (also for the control). The black shank bacteria were inoculated on the second day after the application. The results were investigated according to the disease condition.

soft rot in lettuces = assay: Field test for controlling soft rot in lettuces; format: in vivo, lettuce; settings: 7 days after the last application
Procedure: as §1

[11] = test system: pathogenic bacteria causing fire blight in pears; assay: In vitro bactericidal activity, fire blight in pears; format: cell-based, erwinia
[12] = test system: bacterial wilt in tobacco; settings: seed soaking
[13] = test system: stem rot in sweet potatoes
[14] = test system: pathogenic bacteria causing bacterial blight in rice; assay: whole plant or invertebrate; format: cell-based, xanthomonas; settings: in vitro
[15] = test system: pathogenic bacteria causing fruit blotch in watermelons; assay: In vitro bactericidal activity, fruit blotch in watermelons; format: cell-based, acidovorax
[16] = dose 337.5 g a.i./hm^2, 2 sprays
[17] = dose 67.5 g a.i./hm^2, 2 sprays

Compound | inhibitory rate ([4]; dosage 1 ppm) [%] | inhibitory rate ([4]; dosage 5 ppm) [%] | inhibitory rate ([5]; dosage 1 ppm) [%] | inhibitory rate ([5]; dosage 5 ppm) [%] | inhibitory rate ([7]; dosage 1 ppm) [%] | inhibitory rate ([7]; dosage 5 ppm) [%] | inhibitory rate ([8]; dosage 1 ppm) [%] | inhibitory rate ([8]; dosage 5 ppm) [%] | inhibitory rate ([9]; dosage 1 ppm) [%] | inhibitory rate ([9]; dosage 5 ppm) [%] | inhibitory rate ([10]; dosage 1 ppm) [%] | inhibitory rate ([10]; dosage 5 ppm) [%] | efficacy against black shank in potatoes (black shank in potatoes; dosage 5 ppm) [%] | efficacy against black shank in potatoes (black shank in potatoes; dosage 10 ppm) [%] | inhibitory rate ([11]; dosage 1 ppm) [%] | inhibitory rate ([11]; dosage 5 ppm) [%] | efficacy against bacterial wilt in tobacco ([12]; dosage 5 ppm) [%] | efficacy against bacterial wilt in tobacco ([12]; dosage 10 ppm) [%] | inhibitory rate ([14]; dosage 1 ppm) [%] | inhibitory rate ([14]; dosage 5 ppm) [%] | other results
[Cu+2].[O-]c1cccc2cccnc12.[O-]c1cccc2cccnc12 [oxine-copper, reference compound] | 0 | 3 | 0 | 2 | 0 | 5 | 2 | 7 | 7 | 15 | 0 | 5 | 11 | 22 | 0 | 3 | 5 | 11 | 9 | 16 | Control effect (%) [1, 16]: 13%; Control effect (%) [2, 16]: 11%; efficacy against fruit blotch in watermelons ([3]; in vivo): 22% and 15%; efficacy against soft rot in Chinese cabbages ([6]; in vivo): 16% and 6%; Control effect (%) (soft rot in lettuces; [16]): 9%; efficacy against stem rot in sweet potatoes ([13]; in vivo): 20% and 13%; inhibitory rate ([15]; dosage 1 ppm): 0%; inhibitory rate ([15]; dosage 5 ppm): 3%
zhongshengmycin [reference compound] | 38 | 55 | 21 | 48 | 19 | 46 | 25 | 46 | 32 | 51 | 28 | 51 | 17 | 25 | 23 | 43 | 24 | 35 | 30 | 48 | Control effect (%) [1, 17]: 72%; Control effect (%) [2, 17]: 69%; efficacy against fruit blotch in watermelons ([3]; dosage 5 ppm, seed soaking): 19%; efficacy against fruit blotch in watermelons ([3]; dosage 10 ppm, seed soaking): 33%; efficacy against soft rot in Chinese cabbages ([6]; dosage 5 ppm, sprayed cut leaves, 48 h incubation): 23%; efficacy against soft rot in Chinese cabbages ([6]; dosage 10 ppm, sprayed cut leaves, 48 h incubation): 39%; Control effect (%) (soft rot in lettuces; [17]): 65%; efficacy against stem rot in sweet potatoes ([13]; dosage 5 ppm, seed soaking): 23%; efficacy against stem rot in sweet potatoes ([13]; dosage 10 ppm, seed soaking): 38%; inhibitory rate ([15]; dosage 1 ppm): 29%; inhibitory rate ([15]; dosage 5 ppm): 52%
